Assay results taken from article PMC8881512 (Nature Communications, 2022).
Values joined by “and” are separate entries in the source; they are usually repeats but may differ in a detail not shown here. Equal values may be shown once.

How the values were obtained:
LATS1 = target: T1, LATS1 (Homo sapiens, UniProt O95835); assay: In vitro LATS1 kinase inhibition assay (HTRF); format: biochemical; conditions: for LATS1 kinase activity: Fig.5b; for IC50: 3000 μM ATP, n = 2
T1 construct: purchased Signalchem
T1 sequence (O95835 1-1130): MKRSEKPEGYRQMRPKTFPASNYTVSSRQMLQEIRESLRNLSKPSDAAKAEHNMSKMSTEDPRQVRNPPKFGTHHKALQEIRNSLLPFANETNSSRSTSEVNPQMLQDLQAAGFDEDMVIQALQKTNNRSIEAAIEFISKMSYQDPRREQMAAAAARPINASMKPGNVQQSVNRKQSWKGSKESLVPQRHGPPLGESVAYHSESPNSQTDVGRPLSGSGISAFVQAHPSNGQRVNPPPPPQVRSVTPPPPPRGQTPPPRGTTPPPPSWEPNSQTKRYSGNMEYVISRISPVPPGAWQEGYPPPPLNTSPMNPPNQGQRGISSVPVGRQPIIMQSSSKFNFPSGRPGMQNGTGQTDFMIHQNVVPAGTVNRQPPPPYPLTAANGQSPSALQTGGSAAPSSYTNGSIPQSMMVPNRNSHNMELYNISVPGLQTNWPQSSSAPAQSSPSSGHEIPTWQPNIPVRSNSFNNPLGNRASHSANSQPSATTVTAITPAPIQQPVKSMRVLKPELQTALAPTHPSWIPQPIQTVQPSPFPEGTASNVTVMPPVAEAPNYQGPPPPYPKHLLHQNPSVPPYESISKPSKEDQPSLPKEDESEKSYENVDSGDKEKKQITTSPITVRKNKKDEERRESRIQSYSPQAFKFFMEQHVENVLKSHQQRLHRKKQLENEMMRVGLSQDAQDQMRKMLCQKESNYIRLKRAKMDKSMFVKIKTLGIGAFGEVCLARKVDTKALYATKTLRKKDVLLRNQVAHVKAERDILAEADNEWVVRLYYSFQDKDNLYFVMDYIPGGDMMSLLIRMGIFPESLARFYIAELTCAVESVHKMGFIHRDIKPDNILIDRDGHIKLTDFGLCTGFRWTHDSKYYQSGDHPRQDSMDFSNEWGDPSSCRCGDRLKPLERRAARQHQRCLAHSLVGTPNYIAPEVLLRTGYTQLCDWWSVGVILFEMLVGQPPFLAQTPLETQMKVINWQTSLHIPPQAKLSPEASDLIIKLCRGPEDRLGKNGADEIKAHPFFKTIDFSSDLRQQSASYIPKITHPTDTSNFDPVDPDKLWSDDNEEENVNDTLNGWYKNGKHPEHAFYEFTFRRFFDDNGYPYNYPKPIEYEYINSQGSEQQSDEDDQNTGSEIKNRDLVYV
Protocol: The kinase activity of LATS1 and LATS2 were performed based on an adapted and optimised HTRF Kinase Binding assay (Cisbio). Briefly, the concentration-response curves with compound concentration range of 10,000 to 0.17 nM with 3-fold serial dilution and 1X Kinase enzymatic buffer (Cisbio), 1.2 nM LATS1 or LATS2 kinases (Signalchem), 0.5 μM biotinylation labelled YAP peptide (Vivace) were dispensed into 384-well microplates by automated digital dispenser Echo/POD with the final DMSO concentration in all wells at 0.5%. To start the enzymatic reaction, 3000 μM ATP (for LATS1) or 6000 μM ATP (for LATS2) were added using multidrop in a 10-μl volume and incubated for 90 min at 30 °C. Subsequently, 10 μl of HTRF KinEASE detection buffer (Cisbio) containing 31.25 nM acceptor conjugate (streptavidin-XL665) and 1:100 donor conjugate (TK antibody labelled with Eu^3+-Cryptate) mixture were added and incubated at RT for 60 min, and the fluorescence emission at two different wavelengths was measured (615 nm and 665 nm) on Envision. […] The inhibition was calculated by the formula, inhibition % = (HIGH − ratio) × 100/ (High − LOW). HIGH control stands for 0.5% DMSO with kinase and LOW control stands for 0.5% DMSO without kinase. The data was analysed by Xlfit software. The IC50 values were determined by fitting to a standard four-parameter logistic using GraphPad Prism.

T47D cells = assay: Colony-formation assay, T47D (wild-type and ESR1 knock-in); format: cell-based; conditions: 1 μM 4OHT, 0.2 μM Fulvestrant, 2 μM VT02956, 2 μM VT02484, 14 days, Fig.6h
Protocol: For colony formation, cells were plated into 12-well plate with a constant density at the start date of treatment in triplicate with the indicated compounds and further cultured for 10 days (MCF-7) or 14 days (T47D). The drugs were refreshed every 2–4 days. The colonies were then fixed with 4% paraformaldehyde for 15 min and stained with 0.1% crystal violet in 20% methanol solution for quantification.

[1] = system: VGLL3, ESR1, YAP/TAZ target and ERα target gene mRNA in MCF-7 cells; assay: qPCR gene expression in MCF-7 cells;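 for all read-outs here: SYBR Green real-time PCR, mRNA abundance computed by the ΔCt approach with GAPDH transcript as the internal normalisation control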; conditions: MCF-7, 2 µM for 2 days; for ANKRD1 mRNA (qPCR, relative to DMSO) / LATS2 mRNA (qPCR, relative to DMSO) / VGLL3 mRNA (qPCR, relative to DMSO): sheet Fig.s7b (Supplementary Fig. 7c); for ESR1 mRNA (qPCR, relative to DMSO) / GREB1 mRNA (qPCR, relative to DMSO) / TFF1 mRNA (qPCR, relative to DMSO): sheet Fig.s7d (Supplementary Fig. 7e)
[2] = system: YAP/TAZ target, ESR1 and ERα target gene mRNA in BTO-02; assay: qPCR gene expression in breast tumour organoids BTO-02; format: cell-based, human; conditions: BTO-02, 2 μM for 2 days; for ANKRD1 mRNA (qPCR, relative to DMSO) / CTGF mRNA (qPCR, relative to DMSO) / CYR61 mRNA (qPCR, relative to DMSO) / VGLL3 mRNA (qPCR, relative to DMSO): Fig.5g; for ESR1 mRNA (qPCR, relative to DMSO) / GREB1 mRNA (qPCR, relative to DMSO) / TFF1 mRNA (qPCR, relative to DMSO): Fig.5h;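 for all read-outs here: relative mRNA abundance computed by the ΔCt approach from SYBR-based real-time qPCR, with GAPDH as internal housekeeping reference for normalisation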

Compound	IC50 (LATS1; in vitro) [nM]	Relative colony formation (T47D cells; T47D ERa Y537S knock-in)	Relative colony formation (T47D cells; T47D WT)	ANKRD1 mRNA (qPCR, relative to DMSO) [1]	LATS2 mRNA (qPCR, relative to DMSO) [1]	VGLL3 mRNA (qPCR, relative to DMSO) [1]	ESR1 mRNA (qPCR, relative to DMSO) [1]	GREB1 mRNA (qPCR, relative to DMSO) [1]	TFF1 mRNA (qPCR, relative to DMSO) [1]	ANKRD1 mRNA (qPCR, relative to DMSO) [2]	CTGF mRNA (qPCR, relative to DMSO) [2]	CYR61 mRNA (qPCR, relative to DMSO) [2]	VGLL3 mRNA (qPCR, relative to DMSO) [2]	ESR1 mRNA (qPCR, relative to DMSO) [2]	GREB1 mRNA (qPCR, relative to DMSO) [2]	TFF1 mRNA (qPCR, relative to DMSO) [2]	also measured
NCC1CCN(c2nc(-c3ccncc3)nc3c(C#CCO)cccc23)CC1 [VT02956]	0.76	0.41 and 0.42 and 0.48	0.39 and 0.48 and 0.51	39.7272 and 41.5085 and 42.3168	3.381 and 2.554 and 3.922	57.2973 and 54.8732 and 38.032	0.1783 and 0.1761 and 0.1829	0.3188 and 0.332 and 0.2804	0.2697 and 0.3023 and 0.214	120.896 and 131.016 and 139.426	10.8797 and 10.8657 and 10.8616	13.1424 and 13.7264 and 12.9668	31.437 and 32.235 and 31.533	0.1649 and 0.1855 and 0.1729	0.3079 and 0.3261 and 0.3014	0.0863 and 0.0862 and 0.094	LATS1 kinase activity (LATS1; Conc. 0.00016935 (µM)): 83.5285 and 93.8174; LATS1 kinase activity (LATS1; Conc. 0.00050805 (µM)): 56.9778 and 63.1654; LATS1 kinase activity (LATS1; Conc. 0.00152416 (µM)): 31.2859 and 31.2259; LATS1 kinase activity (LATS1; Conc. 0.00457247 (µM)): 3.14 and 1.742
CCN(CC)c1nc(-c2ccncc2)nc2c(-c3ccc(Cl)cc3)cccc12 [VT02484]	> 10000	0.96 and 0.91 and 1.03	1.12 and 0.89 and 0.98	0.9375 and 1.0569 and 0.9783	1.073 and 0.8452 and 1.234	1.127 and 1.023 and 0.9343	0.9424 and 1.008 and 0.8622	1.01 and 0.9864 and 0.9917	1.063 and 1.169 and 0.8376	1.2497 and 1.0358 and 0.9991	1.029 and 0.9638 and 0.9395	1.1798 and 0.914 and 0.9308	1.193 and 1.051 and 1.05	1.0519 and 1.0384 and 1.0263	1.1915 and 1.2181 and 1.0643	1.1521 and 1.0774 and 1.1271	inhibition towards LATS (LATS1; in vitro, LATS1 and LATS2 (Fig. 5b, c)): showed no inhibition towards LATS
